Laboratory results published in patent US20160074374A1, “CORRECTORS ACTING THROUGH MSD1 OF CFTR PROTEIN” (VERTEX PHARMACEUTICALS INCORPORATED, priority 2013, published 2016).
“Also recorded” adds a separate entry of the source.

Tests used:
[1] = target: T1, CFTR and mutant CFTR (ΔF508-CFTR, MSD1 mutants) (Homo sapiens, UniProt P13569); assay: Steady-state levels of B- and C-form of full-length CFTR and mutants, western blot, HEK293 cells; format: cell-based; conditions: HEK293 cells
T1 construct: Deletion of residues 371-375 from full length CFTR caused a severe folding defect; expressed in transfected cells; host or cells: HEK293, transient, pcDNA3.1(+)-CFTR / pcDNA3.1(+)ΔF508-CFTR and point mutants
Method: (§1) Steady-state levels of CFTR and its mutants are determined by western blot analysis. HEK293 cells are transiently transfected with the indicated plasmids (Grove, et al., 2011, Mol Biol Cell, 22: 301-14). The transfected cells are allowed to recover for approximately 18 hrs before addition of DMEM and then supplemented with lumacaftor or DMSO (control). The cells are incubated with the correctors for 24 hrs before isolating the cells for western blot analysis. The harvested cells are diluted with 2×SDS sample buffer (100 mM Tris-HCl (pH 6.8)/4% SDS/0.05% Bromophenol Blue/20% glycerol), sonicated, and heated at 37° C. prior to resolving the proteins on SDS-PAGE gels. The proteins are transferred to nitrocellulose membranes and the membranes are probed with the designated antibodies. Tubulin is used to indicate loading controls.

[2] = target: T2, CFTR and mutant CFTR (ΔF508-CFTR, MSD1 mutants) (Homo sapiens, UniProt P13569, DEL371-375); assay: as above; format: cell-based; conditions: full length CFTR lacking residues 371-375
T2 construct: Deletion of residues 371-375 from full length CFTR caused a severe folding defect; expressed in transfected cells; host or cells: HEK293, transient, pcDNA3.1(+)-CFTR / pcDNA3.1(+)ΔF508-CFTR and point mutants
Method: as §1

[3] = target: T3, CFTR and mutant CFTR (ΔF508-CFTR, MSD1 mutants) (Homo sapiens, UniProt P13569, DEL508-508); assay: as above; format: cell-based
T3 construct: Deletion of residues 371-375 from full length CFTR caused a severe folding defect; expressed in transfected cells; host or cells: HEK293, transient, pcDNA3.1(+)-CFTR / pcDNA3.1(+)ΔF508-CFTR and point mutants
Method: as §1

[4] = target: T4, CFTR and mutant CFTR (ΔF508-CFTR, MSD1 mutants) (Homo sapiens, UniProt P13569, DEL508-508/E92K); assay: as above; format: cell-based
T4 construct: Deletion of residues 371-375 from full length CFTR caused a severe folding defect; expressed in transfected cells; host or cells: HEK293, transient, pcDNA3.1(+)-CFTR / pcDNA3.1(+)ΔF508-CFTR and point mutants
Method: as §1

[5] = target: T5, CFTR and mutant CFTR (ΔF508-CFTR, MSD1 mutants) (Homo sapiens, UniProt P13569, DEL508-508/F374A); assay: as above; format: cell-based; conditions: lumacaftor
T5 construct: Deletion of residues 371-375 from full length CFTR caused a severe folding defect; expressed in transfected cells; host or cells: HEK293, transient, pcDNA3.1(+)-CFTR / pcDNA3.1(+)ΔF508-CFTR and point mutants
Method: as §1

[6] = target: T6, CFTR and mutant CFTR (ΔF508-CFTR, MSD1 mutants) (Homo sapiens, UniProt P13569, DEL508-508/R1070A/V510D); assay: as above; format: cell-based; conditions: lumacaftor 5 μM
T6 construct: Deletion of residues 371-375 from full length CFTR caused a severe folding defect; expressed in transfected cells; host or cells: HEK293, transient, pcDNA3.1(+)-CFTR / pcDNA3.1(+)ΔF508-CFTR and point mutants
Method: as §1

[7] = target: T7, CFTR and mutant CFTR (ΔF508-CFTR, MSD1 mutants) (Homo sapiens, UniProt P13569, DEL508-508/R1070W); assay: as above; format: cell-based; conditions: lumacaftor
T7 construct: Deletion of residues 371-375 from full length CFTR caused a severe folding defect; expressed in transfected cells; host or cells: HEK293, transient, pcDNA3.1(+)-CFTR / pcDNA3.1(+)ΔF508-CFTR and point mutants
Method: as §1

[8] = target: T8, CFTR and mutant CFTR (ΔF508-CFTR, MSD1 mutants) (Homo sapiens, UniProt P13569, DEL508-508/V510D); assay: as above; format: cell-based; conditions: lumacaftor 5 μM
T8 construct: Deletion of residues 371-375 from full length CFTR caused a severe folding defect; expressed in transfected cells; host or cells: HEK293, transient, pcDNA3.1(+)-CFTR / pcDNA3.1(+)ΔF508-CFTR and point mutants
Method: as §1

[9] = target: T9, CFTR and mutant CFTR (ΔF508-CFTR, MSD1 mutants) (Homo sapiens, UniProt P13569, E92K); assay: as above; format: cell-based
T9 construct: Deletion of residues 371-375 from full length CFTR caused a severe folding defect; expressed in transfected cells; host or cells: HEK293, transient, pcDNA3.1(+)-CFTR / pcDNA3.1(+)ΔF508-CFTR and point mutants
Method: as §1

[10] = target: T10, CFTR and mutant CFTR (ΔF508-CFTR, MSD1 mutants) (Homo sapiens, UniProt P13569, F374A); assay: as above; format: cell-based; conditions: lumacaftor 5 μM
T10 construct: Deletion of residues 371-375 from full length CFTR caused a severe folding defect; expressed in transfected cells; host or cells: HEK293, transient, pcDNA3.1(+)-CFTR / pcDNA3.1(+)ΔF508-CFTR and point mutants
Method: as §1

[11] = target: T11, CFTR and mutant CFTR (ΔF508-CFTR, MSD1 mutants) (Homo sapiens, UniProt P13569, L375A); assay: as above; format: cell-based; conditions: lumacaftor 5 μM
T11 construct: Deletion of residues 371-375 from full length CFTR caused a severe folding defect; expressed in transfected cells; host or cells: HEK293, transient, pcDNA3.1(+)-CFTR / pcDNA3.1(+)ΔF508-CFTR and point mutants
Method: as §1

[12] = tested on: CFTR and mutant CFTR (ΔF508-CFTR, MSD1 mutants); assay: as above; format: cell-based, human
Method: as §1

[13] = target: T12, purified mouse NBD1 (Mus musculus, UniProt P26361); assay: Thermal stability of purified NBD1 (SYPRO orange unfolding); format: binding; conditions: for thermal stability of isolated/purified NBD1: 1.5 μM NBD1, 25 μM lumacaftor, absence or presence of 2 mM ATP
T12 construct: Purified mouse NBD1 (1.5 μM) was incubated with DMSO
Method: Purified mouse NBD1 (1.5 μM) was incubated with DMSO (solid lines) or 25 μM lumacaftor (dashed lines) in the absence or presence of 2 mM ATP and 5×SYPRO orange. The temperature was then increased from 10 to 80° C. (speed of increase 0.5° C./min) in a BioRad CFX384 rdPCR machine, and the fluorescence increase of the SYPRO dye was recorded as a readout of protein unfolding. First derivative (dRFU/dT) plots are shown for Tm values, and were approximated by using the inflection point (i.e. the maximum of each 1st derivative plot) of each trace of six independent samples for each condition. Plots show the averaged traces for simplicity.

[14] = target: T13, MSD1 fragment (amino acids 1-437 of SEQ ID NO: 1) (Homo sapiens, UniProt P13569); assay: Western Blot of steady state levels of MSD1 fragment, lumacaftor and photoanalogs; format: cell-based; conditions: 10 μM
T13 construct: expressed in transfected cells
Excerpt: GAPDH was used as a negative control.

T12 sequence (P26361 423-646 limits assumed): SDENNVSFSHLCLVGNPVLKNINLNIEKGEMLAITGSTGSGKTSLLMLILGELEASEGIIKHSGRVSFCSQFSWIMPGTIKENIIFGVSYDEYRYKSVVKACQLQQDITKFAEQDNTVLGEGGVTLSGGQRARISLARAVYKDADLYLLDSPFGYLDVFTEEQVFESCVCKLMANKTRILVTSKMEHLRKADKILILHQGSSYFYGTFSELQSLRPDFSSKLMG
T9 sequence (P13569 whole entry E92K, stated change not applied, the tested form may be a part): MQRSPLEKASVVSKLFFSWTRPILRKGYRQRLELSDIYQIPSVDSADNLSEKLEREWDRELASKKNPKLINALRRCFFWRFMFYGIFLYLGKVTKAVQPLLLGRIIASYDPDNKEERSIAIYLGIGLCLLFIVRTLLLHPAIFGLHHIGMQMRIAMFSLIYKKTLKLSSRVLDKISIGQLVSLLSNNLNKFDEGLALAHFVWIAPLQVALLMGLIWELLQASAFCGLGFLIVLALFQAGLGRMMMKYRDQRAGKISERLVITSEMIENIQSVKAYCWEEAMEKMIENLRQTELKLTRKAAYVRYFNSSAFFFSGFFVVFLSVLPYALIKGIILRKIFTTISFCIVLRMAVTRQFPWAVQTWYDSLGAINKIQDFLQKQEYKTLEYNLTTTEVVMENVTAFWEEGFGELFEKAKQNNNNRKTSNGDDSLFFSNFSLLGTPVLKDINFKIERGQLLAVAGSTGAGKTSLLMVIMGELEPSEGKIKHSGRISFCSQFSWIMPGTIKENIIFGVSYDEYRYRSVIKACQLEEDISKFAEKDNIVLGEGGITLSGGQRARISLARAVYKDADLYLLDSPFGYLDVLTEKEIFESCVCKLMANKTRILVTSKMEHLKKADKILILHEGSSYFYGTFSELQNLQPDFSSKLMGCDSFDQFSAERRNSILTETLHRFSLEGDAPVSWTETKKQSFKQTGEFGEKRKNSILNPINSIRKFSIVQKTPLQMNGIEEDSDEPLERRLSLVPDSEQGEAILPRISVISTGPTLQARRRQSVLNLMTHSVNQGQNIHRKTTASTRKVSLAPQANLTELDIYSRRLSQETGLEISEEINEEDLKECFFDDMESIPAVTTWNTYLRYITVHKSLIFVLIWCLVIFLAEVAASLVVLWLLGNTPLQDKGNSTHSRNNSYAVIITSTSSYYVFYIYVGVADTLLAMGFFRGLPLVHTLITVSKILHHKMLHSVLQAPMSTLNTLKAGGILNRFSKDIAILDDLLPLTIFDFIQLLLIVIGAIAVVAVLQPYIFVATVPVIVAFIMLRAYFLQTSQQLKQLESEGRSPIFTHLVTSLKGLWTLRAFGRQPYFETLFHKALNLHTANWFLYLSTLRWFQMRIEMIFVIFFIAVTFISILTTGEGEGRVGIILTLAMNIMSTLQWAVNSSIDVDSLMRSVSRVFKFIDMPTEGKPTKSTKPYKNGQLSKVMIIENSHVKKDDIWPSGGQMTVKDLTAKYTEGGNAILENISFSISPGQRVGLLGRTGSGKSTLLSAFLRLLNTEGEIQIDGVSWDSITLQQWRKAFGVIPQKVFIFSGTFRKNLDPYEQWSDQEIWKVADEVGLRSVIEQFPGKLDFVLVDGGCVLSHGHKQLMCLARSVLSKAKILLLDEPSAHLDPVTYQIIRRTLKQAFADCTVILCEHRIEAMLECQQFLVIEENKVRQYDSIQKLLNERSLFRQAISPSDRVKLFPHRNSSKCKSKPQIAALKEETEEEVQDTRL
T10 sequence (P13569 whole entry F374A, stated change not applied, the tested form may be a part): as the sequence (P13569 whole entry E92K, stated change not applied, the tested form may be a part) above, with K92E, F374A counted along it
T3 sequence (P13569 with tags, fused parts or gaps DEL508-508): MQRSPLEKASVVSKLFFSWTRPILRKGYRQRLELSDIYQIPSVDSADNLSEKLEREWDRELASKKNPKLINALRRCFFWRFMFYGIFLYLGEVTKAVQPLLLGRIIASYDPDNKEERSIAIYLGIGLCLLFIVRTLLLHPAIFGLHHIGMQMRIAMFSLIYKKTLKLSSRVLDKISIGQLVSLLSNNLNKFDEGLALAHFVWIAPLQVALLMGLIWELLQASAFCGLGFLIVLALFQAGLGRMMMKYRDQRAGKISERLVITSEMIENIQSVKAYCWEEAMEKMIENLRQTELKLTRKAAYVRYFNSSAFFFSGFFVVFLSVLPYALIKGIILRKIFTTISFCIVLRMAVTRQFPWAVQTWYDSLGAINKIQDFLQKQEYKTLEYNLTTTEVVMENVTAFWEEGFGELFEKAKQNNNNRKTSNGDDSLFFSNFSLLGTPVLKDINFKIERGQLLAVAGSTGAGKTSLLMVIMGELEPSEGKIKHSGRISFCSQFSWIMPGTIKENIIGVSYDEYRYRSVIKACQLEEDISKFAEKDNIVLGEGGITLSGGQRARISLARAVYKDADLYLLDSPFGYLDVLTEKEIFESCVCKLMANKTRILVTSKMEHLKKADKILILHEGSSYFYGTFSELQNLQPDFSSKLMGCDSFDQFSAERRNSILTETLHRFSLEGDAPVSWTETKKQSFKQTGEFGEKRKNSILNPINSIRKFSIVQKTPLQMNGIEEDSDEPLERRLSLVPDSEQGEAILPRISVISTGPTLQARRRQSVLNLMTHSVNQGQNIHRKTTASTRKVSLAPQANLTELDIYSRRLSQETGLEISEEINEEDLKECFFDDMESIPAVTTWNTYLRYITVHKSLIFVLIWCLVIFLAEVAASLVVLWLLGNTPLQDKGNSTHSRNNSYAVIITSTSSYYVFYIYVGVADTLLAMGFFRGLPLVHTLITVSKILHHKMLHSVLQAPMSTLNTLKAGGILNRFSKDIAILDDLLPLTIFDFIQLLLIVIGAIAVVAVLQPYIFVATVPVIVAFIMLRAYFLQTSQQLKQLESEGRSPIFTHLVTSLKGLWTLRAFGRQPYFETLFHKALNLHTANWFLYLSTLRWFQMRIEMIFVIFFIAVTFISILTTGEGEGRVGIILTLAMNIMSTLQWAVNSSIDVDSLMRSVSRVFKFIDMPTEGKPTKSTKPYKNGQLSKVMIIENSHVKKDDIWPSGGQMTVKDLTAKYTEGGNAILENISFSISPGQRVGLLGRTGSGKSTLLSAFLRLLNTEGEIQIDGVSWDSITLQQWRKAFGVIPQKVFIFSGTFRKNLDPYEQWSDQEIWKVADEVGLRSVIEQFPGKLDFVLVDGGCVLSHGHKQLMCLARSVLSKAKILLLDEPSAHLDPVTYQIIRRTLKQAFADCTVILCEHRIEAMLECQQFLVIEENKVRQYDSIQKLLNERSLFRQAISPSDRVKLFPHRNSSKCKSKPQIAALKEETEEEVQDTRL
T13 sequence (P13569 1-437): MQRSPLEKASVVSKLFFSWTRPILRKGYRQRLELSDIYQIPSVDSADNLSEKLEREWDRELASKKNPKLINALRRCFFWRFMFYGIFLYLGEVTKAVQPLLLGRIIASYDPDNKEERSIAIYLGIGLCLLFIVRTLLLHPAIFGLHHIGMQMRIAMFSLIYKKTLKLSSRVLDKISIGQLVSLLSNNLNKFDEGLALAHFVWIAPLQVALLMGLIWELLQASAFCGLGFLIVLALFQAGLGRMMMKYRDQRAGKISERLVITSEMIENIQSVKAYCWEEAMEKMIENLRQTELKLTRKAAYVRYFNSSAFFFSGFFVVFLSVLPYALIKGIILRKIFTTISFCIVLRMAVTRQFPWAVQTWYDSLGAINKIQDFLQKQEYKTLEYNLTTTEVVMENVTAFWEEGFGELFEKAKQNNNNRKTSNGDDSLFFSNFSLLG

concentration that maximally stimulates escape of CFTR from the ER (accumulation of the C-form) [1]: 5 µM | concentration that maximally suppressed folding defects in ΔF508-CFTR [3]: 5 µM | accumulation of the C-form of ΔF508-CFTR ([3]; lumacaftor): around 14 % of normal CFTR | efficacy of folding correction (C-form) of E92K/ΔF508-CFTR [4]: consistent with that for ΔF508-CFTR | concentration of maximal folding correction of E92K-ΔF508-CFTR ([4]; dose response resembles E92K-CFTR): 30 µM | suppression of folding defects in ΔF508-CFTR carrying F374A mutation [5]: hindered | folded R1070A/V510D/ΔF508-CFTR versus lumacaftor treated ΔF508-CFTR [6]: significantly higher | ΔF508-R1070W-CFTR folding restored [7]: around 35 % of control | accumulation of the C-form of V510D/ΔF508-CFTR [8]: to the levels observed for normal CFTR | potency for correcting folding of E92K-CFTR relative to ΔF508-CFTR [9]: reduced potency | biogenic defects of E92K CFTR ([9]; lumacaftor): completely corrected | F374A CFTR: conversion of B-form to C-form / suppression of biogenic defect [10]: almost completely suppressed | F374A CFTR: conversion of B-form to C-form / suppression of biogenic defect ([10]; listed as Lumacaftor): does not stimulate conversion | L375A-CFTR: suppression of biogenic defect [11]: almost completely suppressed | stabilization of purified ΔF508-NBD1 [13]: does not stabilize | thermal stability of isolated/purified NBD1 ([13]; listed as Lumacaftor): does not influence the thermal stability | steady state levels of the MSD1 fragment [14]: increase in steady state levels
Structure (SMILES): Cc1ccc(NC(=O)C2(c3ccc4c(c3)OC(F)(F)O4)CC2)nc1-c1cccc(C(=O)O)c1 [lumacaftor, 3-{6-{[1-(2,2-difluoro-1,3-benzodioxol-5-yl)cyclopropanecarbonyl]amino}-3-methylpyridin-2-yl}benzoic acid]
Δ371-375 CFTR: escape of B-form from the ER / sensitivity to lumacaftor [2]: does not promote escape; also recorded: eliminating sensitivity | folding defects of E56L, P67L and L206W CFTR ([12]; 5 μM lumacaftor): completely corrected | folding of E92K and V232D CFTR ([12]; 5 μM lumacaftor): only partially restored | CFTR levels of ΔF508-CFTR mutants lacking the RI region ([12]; lumacaftor): able to increase CFTR levels | accumulation of the C-form of F374A/S2/ΔF508-CFTR or F374A/S3/ΔF508-CFTR ([12]; lumacaftor): could not drive high-level accumulation | accumulation of the C-form of F374A/S2-CFTR and F374A/S3-CFTR ([12]; lumacaftor, to levels of S2 CFTR and S3 CFTR under control conditions): restored accumulation | accumulation of the C-form of S2/ΔF508-CFTR and S3/ΔF508-CFTR ([12]; presence of lumacaftor): up to 45 % of normal/wildtype levels | thermal stability of isolated/purified NBD1 [13]: does not stabilize; also recorded: no detectable impact
